Experiments:
[1] = molecular target: T1, hyaluronidase (Type IV-S) (Bos taurus, UniProt Q2YDK3); assay: Hyaluronidase activity inhibitory action test; type: biochemical, bovine; settings: read-out: Hyaluronidase activity inhibition rate; for inhibition at 250 µM: 250 μmol/L; for inhibition at 1000 µM: 1000 μmol/L
T1 construct: purchased SIGMA Type IV-S; host or cells: bovine testes
T1 sequence (Q2YDK3 36-553): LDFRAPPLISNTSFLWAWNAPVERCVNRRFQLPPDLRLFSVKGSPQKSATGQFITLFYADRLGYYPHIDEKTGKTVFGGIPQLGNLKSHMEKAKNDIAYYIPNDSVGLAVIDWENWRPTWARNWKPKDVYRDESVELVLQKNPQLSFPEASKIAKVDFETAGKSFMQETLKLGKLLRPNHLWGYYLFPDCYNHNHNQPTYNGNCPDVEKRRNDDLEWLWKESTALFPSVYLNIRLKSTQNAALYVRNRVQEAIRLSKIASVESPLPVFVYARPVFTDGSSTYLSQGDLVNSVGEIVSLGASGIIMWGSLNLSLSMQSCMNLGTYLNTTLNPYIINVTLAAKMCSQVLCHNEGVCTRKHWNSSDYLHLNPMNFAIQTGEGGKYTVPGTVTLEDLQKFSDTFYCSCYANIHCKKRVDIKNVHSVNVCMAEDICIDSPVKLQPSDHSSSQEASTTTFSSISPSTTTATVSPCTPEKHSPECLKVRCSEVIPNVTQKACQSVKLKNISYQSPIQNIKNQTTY
Procedure: To 0.2 mL of each of test samples (Samples 1 to 3, see Table 27 below for final concentrations) dissolved in 0.1 mol/L acetate buffer solution (pH 3.5), 0.1 mL of hyaluronidase solution (available from SIGMA, Type IV-S, from bovine tests, 400 NF units/mL) was added, and the mixture was statically placed at 37° C. for 20 minutes. Furthermore, 0.2 mL of 2.5 mmol/L calcium chloride was added as an activator, and the mixture was statically placed at 37° C. for 20 minutes. To this was added 0.5 mL of 0.8 mg/mL sodium hyaluronate solution (from rooster comb), and the mixture was reacted at 37° C. for 40 minutes. After that, 0.2 mL of 0.4 mol/L sodium hydroxide was added to stop the reaction, it was cooled, and then 0.2 mL of boric acid solution was added to each reaction solution, which was boiled for 3 minutes. After cooling on ice, 6 mL of p-DABA reagent was added and reacted at 37° C. for 20 minutes. After that, the absorbance at a wavelength of 585 nm was measured.
In addition, as a blank, the same operation and absorbance measurement were performed in the case in which no enzyme solution was added. Furthermore, as a control, the same measurement was performed in the case in which distilled water was added without adding the sample solution. From the obtained results, the hyaluronidase activity inhibition rate (%) was calculated using the following equation.
Terms in the equation represent the following respective ones. • A: Absorbance at wavelength 585 nm with test sample addition and with enzyme addition • B: Absorbance at wavelength 585 nm with test sample addition and without enzyme addition • C: Absorbance at wavelength 585 nm without sample addition and with enzyme addition • D: Absorbance at wavelength 585 nm without sample addition and without enzyme addition

[2] = tested on: Normal human liver cells (hepatocytes); assay: ATP production promotive action test in hepatocytes; type: cell-based; settings: 2 hours
Procedure: (§1) Normal human liver cells (hepatocytes) were cultured using Dulbecco's modified Eagle's medium (DMEM) containing 10% FBS, and then the cells were collected by a trypsin treatment. The collected cells were diluted with DMEM containing 10% FBS to a cell density of 2.0×10^5 cells/mL, then seeded with 100 μL per well in a 96-well plate, and cultured overnight.
After the culturing was completed, the medium was removed, 100 μL of each of test samples (Samples 1 to 3, see Table 31 below for final concentrations) dissolved in DMEM containing 10% FBS was added to each well, and culturing was performed for 2 hours. As a control, culturing was performed in the same manner using DMEM containing 10% FBS to which no sample was added.
The ATP production promotive action was evaluated by measuring the amount of ATP in cells using the firefly luciferase luminescence method. That is, after culturing for 2 hours, 100 μL of an ATP measurement reagent (available from Toyo B-Net Co., Ltd., trade name “‘Cellular’ ATP measurement reagent”) was added to each well, and chemiluminescence reaction using luciferase was performed. After the reaction, the amount of chemiluminescence proportional to the amount of intracellular ATP was measured using a chemiluminescence measurement device (available from Thermo Fisher Scientific, product name: Varioskan LUX multimode microplate reader). From the obtained results, the ATP production promotion rate (%) was calculated using the following equation.
Terms in the equation represent the following respective ones. • A: Chemiluminescence amount with test sample addition • B: Chemiluminescence amount without sample addition

[3] = tested on: Normal human liver cells (hepatocytes); assay: Glutathione production promotive action test (hepatocytes); type: cell-based; settings: 24 hours
Procedure: as §1, with “10×10^4” for “2.0×10^5”, “200” for “100”, “48-well” for “96-well”
After culturing, the medium was removed, 200 μL of each of test samples (Samples 1 to 3, see Table 30 below for final concentrations) dissolved in DMEM containing 1% FBS was added to each well, and culturing was further performed for 24 hours. As a control, culturing was performed in the same manner using DMEM containing 1% FBS to which no sample was added. After the culturing was completed, the medium was removed from each well, and the cells were washed with 400 μL of PBS(−) and then lysed using 150 μL of M-PER (available from PIERCE).
Quantitative determination of total glutathione was performed using 100 μL of the lysed cells. That is, 100 μL of lysed cell extract, 50 μL of 0.1 mol/L phosphate buffer solution, 25 μL of 2 mmol/L NADPH, and 25 μL of 3.2 unit/mL glutathione reductase were added to a 96-well plate and heated at 37° C. for 10 minutes, then 25 μL of 10 mmol/L 5,5′-dithiobis(2-nitrobenzoic acid) was added, and the absorbance at a wavelength of 412 nm was measured until 5 minutes later to determine ΔOD/min. The total glutathione concentration was calculated based on a calibration curve created using oxidized glutathione (available from FUJIFILM Wako Pure Chemical Corporation). After correcting the obtained value to the glutathione value per total protein amount, the glutathione production promotion rate (%) was calculated based on the following equation.
Terms in the equation represent the following respective ones. • A: Glutathione amount per total protein amount without sample addition • B: Glutathione amount per total protein amount with test sample addition

SMILES | inhibition at 250 µM [1] [%] | inhibition at 1000 µM [1] [%] | ATP production promotion rate ([2]; 250 μmol/L) [%] | ATP production promotion rate ([2]; 500 μmol/L) [%] | ATP production promotion rate ([2]; 1000 μmol/L) [%] | Glutathione production promotion rate ([3]; 31.2 μmol/L) [%] | Glutathione production promotion rate ([3]; 125 μmol/L) [%] | Glutathione production promotion rate ([3]; 500 μmol/L) [%] | inhibition at 62.5 µM ([1]; 62.5 μmol/L) [%]
O=C(O)CCc1ccc(O)c(O)c1 [Sample 1, 3,4-Dihydroxyhydrocinnamic acid] | 4.9 | 19.9 | 128.4 | 166.8 | 168.9 | 123.9 | 124.8 | 113.4 | –
O=C(O)CCc1ccc(O)cc1 [Sample 2, 3-(4-Hydroxyphenyl)propionic acid] | – | 15.8 | 141.9 | 159.1 | 165.1 | 119.2 | 118.1 | – | –
O=C(O)CCc1ccccc1 [Sample 3, 3-phenylpropionic acid] | 20.2 | 41.1 | 128.0 | 136.5 | 156.1 | 133.9 | 124.6 | 119.2 | 16.5

— US20240252456A1, “ORAL COMPOSITION, SKIN COSMETIC AND HAIR COSMETIC” (MARUZEN PHARMACEUTICALS CO., LTD., priority 2021, published 2024)
